{
  "source": "PubChem BioAssay (NCI)",
  "note": "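Assay format: 96-well plates, 48-hour exposure. TGI: total growth inhibition.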",
  "data": [
    {"system": "OVCAR-8 ovarian", "assay": "NCI anticancer screen, dose series, 48 h", "units": {"TGI": "µM"}, "values": [
      {"smiles": "NS(=O)(=O)c1ccc(NC(=O)c2cccc3c(=O)c4ccccc4[nH]c23)cc1", "TGI": "> 100"},
      {"smiles": "COc1ccc(C2=NC(C)(C)CO2)cc1", "TGI": "> 100"}
    ]},
    {"system": "HT29 colon", "assay": "NCI anticancer screen, dose series, 48 h", "units": {"TGI": "µM"}, "values": [
      {"smiles": "CCOC(=O)/C(=C/c1ccco1)P(=O)(OCC)OCC", "TGI": "> 100"},
      {"smiles": "O=C(Nc1ccc(S(=O)(=O)N[C@@H](C(=O)O)c2ccccc2)cc1)c1ccc(F)cc1", "TGI": "> 100"},
      {"smiles": "CC(C)(C)c1nc2c(o1)C(=Nc1ccc(F)cc1)c1ccccc1C2=O", "TGI": 41.6},
      {"smiles": "C=C1CC2C(=O)N(c3ccccc3)C(=O)C2CC1n1[nH]c(=O)n(Cc2ccccc2)c1=O", "note": "(centres undefined)", "TGI": "> 100"},
      {"smiles": "c1ccc2c(c1)N=C(c1cccc3ccccc13)CC(c1cccc3ccccc13)S2", "note": "(centres undefined)", "TGI": 10.1},
      {"smiles": "NS(=O)(=O)c1ccc(NC(=O)c2cccc3c(=O)c4ccccc4[nH]c23)cc1", "TGI": "> 100"},
      {"smiles": "COc1ccc(C2=NC(C)(C)CO2)cc1", "TGI": "> 100"}
    ]},
    {"system": "MDA-MB-435", "assay": "NCI anticancer screen, dose series, 48 h", "units": {"TGI": "µM"}, "values": [
      {"smiles": "CC(C)(C)c1nc2c(o1)C(=Nc1ccc(F)cc1)c1ccccc1C2=O", "TGI": 3.76}
    ]},
    {"system": "CCRF-CEM leukemia", "assay": "NCI anticancer screen, dose series, 48 h", "units": {"TGI": "µM"}, "values": [
      {"smiles": "CCOC(=O)/C(=C/c1ccco1)P(=O)(OCC)OCC", "TGI": "> 100"},
      {"smiles": "O=C(Nc1ccc(S(=O)(=O)N[C@@H](C(=O)O)c2ccccc2)cc1)c1ccc(F)cc1", "TGI": "> 100"},
      {"smiles": "CC(C)(C)c1nc2c(o1)C(=Nc1ccc(F)cc1)c1ccccc1C2=O", "TGI": "> 100"},
      {"smiles": "C=C1CC2C(=O)N(c3ccccc3)C(=O)C2CC1n1[nH]c(=O)n(Cc2ccccc2)c1=O", "note": "(centres undefined)", "TGI": "> 100"},
      {"smiles": "c1ccc2c(c1)N=C(c1cccc3ccccc13)CC(c1cccc3ccccc13)S2", "note": "(centres undefined)", "TGI": 4.67},
      {"smiles": "NS(=O)(=O)c1ccc(NC(=O)c2cccc3c(=O)c4ccccc4[nH]c23)cc1", "TGI": "> 100"},
      {"smiles": "COc1ccc(C2=NC(C)(C)CO2)cc1", "TGI": "> 100"}
    ]},
    {"system": "A549 NSCLC", "assay": "NCI anticancer screen, dose series, 48 h", "units": {"TGI": "µM"}, "values": [
      {"smiles": "CCOC(=O)/C(=C/c1ccco1)P(=O)(OCC)OCC", "TGI": "> 100"},
      {"smiles": "O=C(Nc1ccc(S(=O)(=O)N[C@@H](C(=O)O)c2ccccc2)cc1)c1ccc(F)cc1", "TGI": "> 100"},
      {"smiles": "CC(C)(C)c1nc2c(o1)C(=Nc1ccc(F)cc1)c1ccccc1C2=O", "TGI": 22.7},
      {"smiles": "C=C1CC2C(=O)N(c3ccccc3)C(=O)C2CC1n1[nH]c(=O)n(Cc2ccccc2)c1=O", "note": "(centres undefined)", "TGI": "> 100"},
      {"smiles": "c1ccc2c(c1)N=C(c1cccc3ccccc13)CC(c1cccc3ccccc13)S2", "note": "(centres undefined)", "TGI": 41.9},
      {"smiles": "NS(=O)(=O)c1ccc(NC(=O)c2cccc3c(=O)c4ccccc4[nH]c23)cc1", "TGI": "> 100"},
      {"smiles": "COc1ccc(C2=NC(C)(C)CO2)cc1", "TGI": "> 100"}
    ]},
    {"system": "SK-MEL-28 melanoma", "assay": "NCI anticancer screen, dose series, 48 h", "units": {"TGI": "µM"}, "values": [
      {"smiles": "CCOC(=O)/C(=C/c1ccco1)P(=O)(OCC)OCC", "TGI": "> 100"},
      {"smiles": "O=C(Nc1ccc(S(=O)(=O)N[C@@H](C(=O)O)c2ccccc2)cc1)c1ccc(F)cc1", "TGI": "> 100"},
      {"smiles": "CC(C)(C)c1nc2c(o1)C(=Nc1ccc(F)cc1)c1ccccc1C2=O", "TGI": 26},
      {"smiles": "C=C1CC2C(=O)N(c3ccccc3)C(=O)C2CC1n1[nH]c(=O)n(Cc2ccccc2)c1=O", "note": "(centres undefined)", "TGI": "> 100"},
      {"smiles": "c1ccc2c(c1)N=C(c1cccc3ccccc13)CC(c1cccc3ccccc13)S2", "note": "(centres undefined)", "TGI": 25.9},
      {"smiles": "NS(=O)(=O)c1ccc(NC(=O)c2cccc3c(=O)c4ccccc4[nH]c23)cc1", "TGI": "> 100"},
      {"smiles": "COc1ccc(C2=NC(C)(C)CO2)cc1", "TGI": "> 100"}
    ]},
    {"system": "DLD-1 colon", "assay": "NCI anticancer screen, dose series, 48 h", "units": {"TGI": "µM"}, "values": [
      {"smiles": "CCOC(=O)/C(=C/c1ccco1)P(=O)(OCC)OCC", "TGI": "> 100"},
      {"smiles": "O=C(Nc1ccc(S(=O)(=O)N[C@@H](C(=O)O)c2ccccc2)cc1)c1ccc(F)cc1", "TGI": "> 100"},
      {"smiles": "CC(C)(C)c1nc2c(o1)C(=Nc1ccc(F)cc1)c1ccccc1C2=O", "TGI": "> 100"},
      {"smiles": "C=C1CC2C(=O)N(c3ccccc3)C(=O)C2CC1n1[nH]c(=O)n(Cc2ccccc2)c1=O", "note": "(centres undefined)", "TGI": "> 100"},
      {"smiles": "c1ccc2c(c1)N=C(c1cccc3ccccc13)CC(c1cccc3ccccc13)S2", "note": "(centres undefined)", "TGI": 16.2},
      {"smiles": "NS(=O)(=O)c1ccc(NC(=O)c2cccc3c(=O)c4ccccc4[nH]c23)cc1", "TGI": "> 100"},
      {"smiles": "COc1ccc(C2=NC(C)(C)CO2)cc1", "TGI": "> 100"}
    ]},
    {"system": "SW-620 colon", "assay": "NCI anticancer screen, dose series, 48 h", "units": {"TGI": "µM"}, "values": [
      {"smiles": "CCOC(=O)/C(=C/c1ccco1)P(=O)(OCC)OCC", "TGI": "> 100"},
      {"smiles": "O=C(Nc1ccc(S(=O)(=O)N[C@@H](C(=O)O)c2ccccc2)cc1)c1ccc(F)cc1", "TGI": "> 100"},
      {"smiles": "CC(C)(C)c1nc2c(o1)C(=Nc1ccc(F)cc1)c1ccccc1C2=O", "TGI": 30},
      {"smiles": "C=C1CC2C(=O)N(c3ccccc3)C(=O)C2CC1n1[nH]c(=O)n(Cc2ccccc2)c1=O", "note": "(centres undefined)", "TGI": "> 100"},
      {"smiles": "c1ccc2c(c1)N=C(c1cccc3ccccc13)CC(c1cccc3ccccc13)S2", "note": "(centres undefined)", "TGI": 6.81},
      {"smiles": "NS(=O)(=O)c1ccc(NC(=O)c2cccc3c(=O)c4ccccc4[nH]c23)cc1", "TGI": "> 100"},
      {"smiles": "COc1ccc(C2=NC(C)(C)CO2)cc1", "TGI": "> 100"}
    ]},
    {"system": "MOLT-4 leukemia", "assay": "NCI anticancer screen, dose series, 48 h", "units": {"TGI": "µM"}, "values": [
      {"smiles": "CCOC(=O)/C(=C/c1ccco1)P(=O)(OCC)OCC", "TGI": "> 100"},
      {"smiles": "O=C(Nc1ccc(S(=O)(=O)N[C@@H](C(=O)O)c2ccccc2)cc1)c1ccc(F)cc1", "TGI": "> 100"},
      {"smiles": "CC(C)(C)c1nc2c(o1)C(=Nc1ccc(F)cc1)c1ccccc1C2=O", "TGI": "> 100"},
      {"smiles": "C=C1CC2C(=O)N(c3ccccc3)C(=O)C2CC1n1[nH]c(=O)n(Cc2ccccc2)c1=O", "note": "(centres undefined)", "TGI": "> 100"}
    ]}
  ]
}
